From ChEMBL document CHEMBL3124847, “Membrane damaging activity of a maslinic acid analog” (Eur J Med Chem, 2014)
≈ marks a conversion by molar mass, not a printed value. Each block holds one compound with its values, some of them ahead of it. Calls of active or inactive are those of the source. The calls are words filed in the database; no cut-off is given here.

What was measured:
[1] = test system: A2780; assay: Induction of apoptosis in human A2780 cells assessed as caspase 3 activity at 1 uM after 12 hrs relative to control; type: functional
[2] = test system: A2780; assay: Induction of apoptosis in human A2780 cells assessed as caspase 9 activity at 1 uM after 24 hrs relative to control; type: functional
[3] = test system: A2780; assay: Induction of apoptosis in human A2780 cells assessed as caspase 9 activity at 1 uM after 12 hrs relative to control; type: functional
[4] = test system: A2780; assay: Induction of apoptosis in human A2780 cells assessed as cholesterol crystal formation after 24 hrs by acridine orange/propidium iodide staining-based fluorescence microscopy; type: functional, cell-based
[5] = test system: A2780; assay: Induction of apoptosis in human A2780 cells assessed as caspase 9 activity at 1 uM after 6 hrs relative to control; type: functional
[6] = test system: A2780; assay: Induction of apoptosis in human A2780 cells assessed as caspase 3 activity at 1 uM after 24 hrs relative to control; type: functional
[7] = test system: A2780; assay: Induction of apoptosis in human A2780 cells assessed as caspase 8 activity at 1 uM after 12 hrs relative to control; type: functional
[8] = test system: A2780; assay: Induction of apoptosis in human A2780 cells assessed as caspase 8 activity at 1 uM after 6 hrs relative to control; type: functional
[9] = test system: A2780; assay: Induction of apoptosis in human A2780 cells assessed as cell shrinkage at 1 uM after 24 hrs by acridine orange/propidium iodide staining-based fluorescence microscopy; type: functional
[10] = test system: A2780; assay: Induction of apoptosis in human A2780 cells assessed as cholesterol crystal formation at 1 uM by acridine orange/propidium iodide staining-based fluorescence microscopy; type: functional, cell-based; conditions: TDE = time-dependent effect
[11] = test system: A2780; assay: Induction of apoptosis in human A2780 cells assessed as caspase 3 activity at 1 uM after 6 hrs relative to control; type: functional
[12] = test system: A2780; assay: Induction of apoptosis in human A2780 cells assessed as chromatin condensation at 1 uM after 24 hrs by acridine orange/propidium iodide staining-based fluorescence microscopy; type: functional, cell-based
[13] = test system: A2780; assay: Induction of apoptosis in human A2780 cells assessed as caspase 8 activity at 1 uM after 24 hrs relative to control; type: functional
[14] = test system: NIH3T3; assay: Cytotoxicity against mouse NIH/3T3 cells after 96 hrs by SRB assay; type: cell-based; conditions: NIH3T3, 96 h
[15] = test system: A2780; assay: Induction of apoptosis in human A2780 cells assessed as caspase 8 activity at 24 uM after 24 hrs relative to control; type: functional
[16] = test system: A2780; assay: Induction of apoptosis in human A2780 cells assessed as DNA fragmentation at 0.024 to 0.060 mM after 6 to 24 hrs by agarose gel electrophoresis; type: functional, cell-based
[17] = test system: HT-29; assay: Cytotoxicity against human HT-29 cells after 96 hrs by SRB assay; type: functional, cell-based; conditions: HT-29, 96 h
[18] = test system: A2780; assay: Induction of apoptosis in human A2780 cells assessed as caspase 9 activity at 60 uM after 6 hrs relative to control; type: functional
[19] = test system: A549; assay: Cytotoxicity against human A549 cells after 96 hrs by SRB assay; type: functional, cell-based; conditions: A549, 96 h
[20] = test system: A2780; assay: Induction of apoptosis in human A2780 cells assessed as caspase 3 activity at 24 uM after 12 hrs relative to control; type: functional
[21] = test system: A2780; assay: Induction of apoptosis in human A2780 cells assessed as caspase 3 activity at 60 uM after 12 hrs relative to control; type: functional
[22] = test system: A2780; assay: Induction of apoptosis in human A2780 cells assessed as caspase 9 activity at 24 uM after 6 hrs relative to control; type: functional
[23] = test system: A2780; assay: Induction of apoptosis in human A2780 cells assessed as caspase 8 activity at 60 uM after 24 hrs relative to control; type: functional
[24] = test system: A2780; assay: Induction of apoptosis in human A2780 cells at 2 to 6 times IC50 after 6 to 24 hrs by acridine orange/propidium iodide staining-based fluorescence microscopy; type: functional, cell-based
[25] = test system: A2780; assay: Induction of apoptosis in human A2780 cells assessed as caspase 9 activity at 24 uM after 12 hrs relative to control; type: functional
[26] = test system: A2780; assay: Cell cycle arrest in human A2780 cells assessed as early detachment of cells at 24 to 60 uM after 24 hrs by annexin V/propidium iodide staining-based FACS analysis; type: functional
[27] = test system: A2780; assay: Induction of apoptosis in human A2780 cells assessed as caspase 3 activity at 60 uM after 24 hrs relative to control; type: functional
[28] = test system: A2780; assay: Cell cycle arrest in human A2780 cells assessed as accumulation at G1/G0 phase at 12 uM after 12 hrs by annexin V/propidium iodide staining-based FACS analysis; type: functional
[29] = test system: A2780; assay: Induction of apoptosis in human A2780 cells assessed as caspase 3 activity at 24 uM after 6 hrs relative to control; type: functional
[30] = test system: A2780; assay: Induction of apoptosis in human A2780 cells assessed as caspase 9 activity at 24 uM after 24 hrs relative to control; type: functional
[31] = test system: A2780; assay: Induction of apoptosis in human A2780 cells assessed as caspase 3 activity at 24 uM after 24 hrs relative to control; type: functional
[32] = test system: A2780; assay: Induction of apoptosis in human A2780 cells assessed as cell shrinkage at 24 to 60 uM after 24 hrs by acridine orange/propidium iodide staining-based fluorescence microscopy; type: functional
[33] = Cytotoxicity against human 518A2 cells after 96 hrs by SRB assay; type: functional, cell-based; conditions: 518A2, 96 h
[34] = test system: A2780; assay: Induction of apoptosis in human A2780 cells assessed as caspase 8 activity at 60 uM after 6 hrs relative to control; type: functional
[35] = test system: A2780; assay: Induction of apoptosis in human A2780 cells assessed as caspase 8 activity at 24 uM after 12 hrs relative to control; type: functional
[36] = test system: A2780; assay: Induction of apoptosis in human A2780 cells assessed as chromatin condensation at 24 to 60 uM after 24 hrs by acridine orange/propidium iodide staining-based fluorescence microscopy; type: functional, cell-based
[37] = test system: A2780; assay: Cell cycle arrest in human A2780 cells assessed as accumulation at S phase at 24 uM after 6 hrs by annexin V/propidium iodide staining-based FACS analysis; type: functional
[38] = test system: A2780; assay: Induction of apoptosis in human A2780 cells assessed as secondary necrotic cells at 24 to 60 uM after 6 to 24 hrs by annexin V/propidium iodide staining-based FACS analysis; type: functional, cell-based
[39] = Solubility of the compound in buffer at 10 uM after 90 mins by HPLC analysis; type: physicochemical
[40] = test system: A2780; assay: Induction of apoptosis in human A2780 cells assessed as caspase 9 activity at 60 uM after 12 hrs relative to control; type: functional
[41] = test system: A2780; assay: Induction of apoptosis in human A2780 cells assessed as cholesterol crystal formation at 24 to 60 uM by acridine orange/propidium iodide staining-based fluorescence microscopy; type: functional, cell-based; conditions: TDE = time-dependent effect
[42] = test system: A2780; assay: Induction of apoptosis in human A2780 cells assessed as caspase 8 activity at 60 uM after 12 hrs relative to control; type: functional
[43] = test system: A2780; assay: Induction of apoptosis in human A2780 cells assessed as caspase 9 activity at 60 uM after 24 hrs relative to control; type: functional
[44] = test system: A2780; assay: Cytotoxicity against human A2780 cells after 96 hrs by SRB assay; type: functional, cell-based; conditions: A2780, 96 h
[45] = test system: A2780; assay: Induction of apoptosis in human A2780 cells assessed as caspase 8 activity at 24 uM after 6 hrs relative to control; type: functional
[46] = test system: A2780; assay: Induction of apoptosis in human A2780 cells assessed as phosphatidylserine externalization at 60 uM after 6 hrs by annexin V/propidium iodide staining-based FACS analysis; type: functional
[47] = test system: 8505C; assay: Cytotoxicity against human 8505C cells after 96 hrs by SRB assay; type: functional, cell-based
[48] = test system: A2780; assay: Induction of apoptosis in human A2780 cells assessed as caspase 3 activity at 60 uM after 6 hrs relative to control; type: functional
[49] = test system: MCF7; assay: Cytotoxicity against human MCF7 cells after 96 hrs by SRB assay; type: functional, cell-based; conditions: MCF7, 96 h

Structure (SMILES): CN[C@@H]1C[C@H]2O[C@@](C)([C@@H]1OC)n1c3ccccc3c3c4c(c5c6ccccc6n2c5c31)C(=O)NC4 [STAUROSPORINE]
Activity [1]: 52%
Activity [2]: 33%
Activity [3]: 3%
Activity [4]: Dose-dependent effect
Activity [5]: 38%
Activity [6]: 57%
Activity [7]: 52%
Activity [8]: 51%
Activity [9]: Active
Activity [10]: tde
Activity [11]: 68%
Activity [12]: Active
Activity [13]: 79%

Structure (SMILES): CC1(C)CC[C@]2(C(=O)O)CC[C@]3(C)C(=CC[C@@H]4[C@@]5(C)C[C@@H](O)[C@H](O)C(C)(C)[C@@H]5CC[C@]43C)[C@@H]2C1 [MASLINIC ACID]
IC50 [14]: 21.1 µM

solubility at 1.5 h, 10 µM [39]: 110 µM (≈ 66.5 µg/mL)
Structure (SMILES): CC1(C)CC[C@]2(C(=O)OCCCOc3ccccc3)CC[C@]3(C)C(=CC[C@@H]4[C@@]5(C)C[C@@H](O)[C@H](O)C(C)(C)[C@@H]5CC[C@]43C)[C@@H]2C1
Activity [15]: 27%
Activity [16]: Active
IC50 [17]: 12.5 µM
Activity [18]: 3%
IC50 [19]: 13.7 µM
Activity [20]: 1%
Activity [21]: 37%
Activity [22]: 0%
Activity [23]: 39%
Activity [4]: Dose-dependent effect
Activity [24]: Active
Activity [25]: -2%
Activity [26]: Active
Activity [27]: 31%
Activity [28]: Active
Activity [29]: 2%
Activity [30]: 6%
Activity [31]: 25%
Activity [32]: Active
IC50 [33]: 12.6 µM
Activity [34]: 25%
Activity [35]: 1%
Activity [36]: Active
Activity [37]: Active
Activity [38]: Active
Activity [40]: 2%
Activity [41]: tde
Activity [42]: 44%
Activity [43]: 21%
IC50 [44]: 10.6 µM
IC50 [14]: 12.7 µM
Activity [45]: 2%
Activity [46]: 80%
IC50 [47]: 13.3 µM
Activity [48]: 29%
IC50 [49]: 13.6 µM
